Test results taken from BindingDB's records for patent US20240254114 (Merck Sharp & Dohme, 2024).

Target: T1, Diacylglycerol O-acyltransferase 2 (Homo sapiens, UniProt Q96PD7)
T1 sequence (Q96PD7 whole entry): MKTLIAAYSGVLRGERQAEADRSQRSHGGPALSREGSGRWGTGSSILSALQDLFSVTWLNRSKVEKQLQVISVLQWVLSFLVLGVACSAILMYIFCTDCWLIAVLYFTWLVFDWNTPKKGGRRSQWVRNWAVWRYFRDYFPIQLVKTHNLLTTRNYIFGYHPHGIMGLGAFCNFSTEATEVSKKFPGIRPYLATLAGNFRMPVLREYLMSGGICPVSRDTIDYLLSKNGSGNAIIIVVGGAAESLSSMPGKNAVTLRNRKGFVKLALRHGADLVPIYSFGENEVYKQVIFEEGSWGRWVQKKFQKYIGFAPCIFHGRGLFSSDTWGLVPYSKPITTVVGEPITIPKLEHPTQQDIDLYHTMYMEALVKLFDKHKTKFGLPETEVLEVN
Assay: DGAT2 Enzymatic Activity Assay
Method: DGAT2 activity was determined by measuring the amount of enzymatic product 13C18-triolein (13C-1,2,3-Tri(cis-9-octadecenoyl)glycerol) using the membrane prep mentioned above. The assay was carried out in ABgene 384-well assay plates in a final volume of 25 uL at rt.

IC50: 1010 nM
SMILES: O=C(NC1CN(C(=O)C(F)(F)F)C1)c1nc2ccc(Oc3ncc(Cl)cc3OCC(F)(F)F)cc2o1 [US20240254114, Example 8]
